Reference: patent US20080213785A1, “Method of predicting a benefit of antioxidant therapy for prevention or treatment of vasclar disease in hyperglycemic individuals” (priority 2000, published 2008)
Marks after values point to notes of the source that are not given here.

Tests used:
[1] = value for 1 mg; cited from earlier work
[2] = test system: patients at high risk of cardiovascular events; assay: HOPE study: CV outcomes with vitamin E or ramipril by haptoglobin phenotype; type: in vivo, human; conditions: for benefit of supplementation: unselected DM group
Text: HOPE study and patient characteristics: The Heart Outcomes Prevention Evaluation (HOPE) study was designed to test the hypotheses that two preventive intervention strategies, namely angiotensin-converting enzyme (ACE) inhibition or vitamin E, would improve morbidity and mortality in patients at high risk of cardiovascular events compared with placebo. Patients were included in the study who were considered to be at high risk of future fatal or non-fatal cardiovascular events, by virtue of their age (>55 years), existing or previous cardiovascular disease, or diabetes. Diabetics had at least one other risk factor, either known vascular disease or other factors such as cigarette smoking, high cholesterol or hypertension. Ramipril or placebo was added to concomitant medication, which included, in a substantial proportion of patients, antihypertensive drugs (excluding ACE-I), lipid-lowering agents or aspirin. The HOPE study design and protocols have been previously described in detail (see, for example, The Heart Outcomes Prevention Evaluation Study Investigators NE J Med, 2000; 342:154-60 and […] Angioten Aldost Sys 2000; 1:18-20). Briefly, the study population consisted over 9,451 patients at high risk of CVD (3,654 DM). […] Patients were followed for a mean of 4.5 years. The primary study outcome was the composite of non-fatal MI, stroke or cardiovascular death. For samples from the HOPE Study, haptoglobin phenotyping was performed from 10 ul of plasma by polyacrylamide gel electrophoresis according to established methods (Hochberg I et al Atherosclerosis 2002; 161:441-446). A signature banding pattern is obtained from individuals who are homozygous for the 1 allele (Hp 1-1), homozygous for the 2 allele (Hp 2-2) or who are heterozygous at the haptoglobin locus (Hp 2-1). We have established 100% concordance between the haptoglobin phenotype as determined from plasma and the haptoglobin genotype as determined from genomic DNA by the polymerase chain reaction (Koch W, et al Clin Chem 2002; 277:13635-40). An unambiguous haptoglobin phenotype was obtained on greater than 99.6% of all samples assayed. Haptoglobin phenotyping was performed with no knowledge of the patients clinical or treatment status. All analyses of the HOPE Study data were carried out using SAS 6.02. Baseline characteristics of patients according to haptoglobin were compared by t tests or .chi^2 tests as appropriate. […] Patient characteristics of HOPE samples undergoing haptoglobin phenotyping: Haptoglobin phenotype was obtained on 3176 patients (1078 diabetics) from the original HOPE cohort for whom plasma was originally archived. These patients represented a randomly selected consecutive series of patients from the entire HOPE cohort.

macrophages = assay: Cholesterol efflux from macrophage by serum from treated diabetic mice; conditions: for effect on cholesterol efflux activity: Hp 2-2 diabetic mice
[3] = test system: patients at high risk of cardiovascular events; conditions: HOPE study as published; daily 400 IU for 4.5 years; not stratified by haptoglobin; cited from earlier work
[4] = CVD outcomes and Vitamin C supplementation (data not shown); type: in vivo, human; conditions: unselected samples or Diabetic patients
[5] = DM patients only, Hp 2-2, listed as vitamin E
[6] = DM patients with the other haptoglobin phenotypes (Hp 1-1 and Hp 2-1)
[7] = all patients, Hp 1-1, supplementation vs placebo
[8] = all patients, Hp 2-1, supplementation vs placebo
[9] = all patients, Hp 2-2, supplementation vs placebo
[10] = entire sample, regardless of haptoglobin type
[11] = serum from diabetic Hp 1-1 mice treated orally 28 days (vitamin E 1 mg/kg/day; GPx mimetic 2 mg/kg/day)
[12] = serum from diabetic Hp 2-2 mice treated orally 28 days (vitamin E 1 mg/kg/day; GPx mimetic 2 mg/kg/day)

## CC(=O)Oc1c(C)c(C)c2c(c1C)CC[C@@](C)(CCC[C@H](C)CCC[C@H](C)CCCC(C)C)O2 [RRR-.alpha-tocopherol acetate]
[1]
  specific activity: 1.36 IU per milligram

## CC(=O)Oc1c(C)c(C)c2c(c1C)CC[C@@](C)(CCC[C@H](C)CCC[C@H](C)CCCC(C)C)O2 [Vitamin E]
[2]; DM patients only, Hp 1-1
  Relative Risk Ratio, CV death (95% CI): 0.64
  Relative Risk Ratio, MI (95% CI): 0.83
  Relative Risk Ratio, Primary (non-fatal MI, stroke or cardiovascular death) (95% CI): 0.84
  Relative Risk Ratio, Stroke (95% CI): 2.24
[2]; DM patients only, Hp 2-1
  Relative Risk Ratio, CV death (95% CI): 1.0(0.53-1.93)
  Relative Risk Ratio, MI (95% CI): 0.99
  Relative Risk Ratio, Primary (non-fatal MI, stroke or cardiovascular death) (95% CI): 1.08
  Relative Risk Ratio, Stroke (95% CI): 0.99(0.45-2.18)
[2]; DM patients only, Hp 2-2
  Relative Risk Ratio, CV death (95% CI): 0.45 (0.23-0.90) *
  Relative Risk Ratio, MI (95% CI): 0.57
  Relative Risk Ratio, Primary (non-fatal MI, stroke or cardiovascular death) (95% CI): 0.70(0.45-1.10)
  Relative Risk Ratio, Stroke (95% CI): 1.15
[2]; [5]
  Relative Risk Ratio, CV death (95% CI): 0.45
  Relative Risk Ratio, MI (95% CI): 0.57
[2]; [6]
  benefit for any of the primary CV outcomes: no significant benefit
[2]; all patients, Hp 1-1
  Relative Risk Ratio, CV death (95% CI): 1.10
  Relative Risk Ratio, MI (95% CI): 0.79
  Relative Risk Ratio, Stroke (95% CI): 1.50
[2]; [7]
  Relative Risk Ratio, Primary (non-fatal MI, stroke or cardiovascular death) (95% CI): 0.97(0.63-1.50)
[2]; all patients, Hp 2-1
  Relative Risk Ratio, CV death (95% CI): 1.07(0.69-1.64)
  Relative Risk Ratio, MI (95% CI): 1.02(0.75-1.38)
  Relative Risk Ratio, Stroke (95% CI): 0.92(0.53-1.60)
[2]; [8]
  Relative Risk Ratio, Primary (non-fatal MI, stroke or cardiovascular death) (95% CI): 0.96(0.74-1.25)
[2]; all patients, Hp 2-2
  Relative Risk Ratio, CV death (95% CI): 0.75
  Relative Risk Ratio, MI (95% CI): 0.94(0.68-1.30)
  Relative Risk Ratio, Stroke (95% CI): 0.85
[2]; [9]
  Relative Risk Ratio, Primary (non-fatal MI, stroke or cardiovascular death) (95% CI): 0.92
[2]; [10]
  benefit for any of the primary CV outcomes: no significant benefit
[2]
  benefit of supplementation: no significant benefit
macrophages
  effect on cholesterol efflux activity: increased
macrophages; [11]
  Tritiated cholesterol efflux from macrophages: 16.1 +/− 0.5 % per hour
macrophages; [12]
  Tritiated cholesterol efflux from macrophages: 15.3 +/− 0.7 % per hour
[3]
  clinical benefit on cardiovascular (CV) outcomes: failed to demonstrate any clinical benefit

## Cc1c(C)c2c(c(C)c1O)CC[C@@](C)(CCC[C@H](C)CCC[C@H](C)CCCC(C)C)O2 [RRR-alpha-tocopherol]
[1]
  specific activity: 1.49 IU per milligram

## CC(=O)Oc1c(C)c(C)c2c(c1C)CCC(C)(CCCC(C)CCCC(C)CCCC(C)C)O2 (racemic) [all-rac-α-tocopherol acetate]
[1]
  specific activity: 1.00 IU per milligram

## Cc1c(C)c2c(c(C)c1O)CCC(C)(CCCC(C)CCCC(C)CCCC(C)C)O2 (racemic) [all-rac-.alpha-tocopherol]
[1]
  specific activity: 1.10 IU per milligram

## CC1(C)CN[Se]c2ccccc21 [GPx mimetic]
macrophages
  effect on cholesterol efflux activity: increased
macrophages; [11]
  Tritiated cholesterol efflux from macrophages: 14.6 +/− 0.4 % per hour
macrophages; [12]
  Tritiated cholesterol efflux from macrophages: 14.0 +/− 0.5 % per hour

## O=C1O[C@H]([C@@H](O)CO)C(O)=C1O [Vitamin C]
[4]
  correlation between CVD outcomes and supplementation: no correlation

## CCOC(=O)[C@H](CCc1ccccc1)N[C@@H](C)C(=O)N1[C@H](C(=O)O)C[C@@H]2CCC[C@@H]21 [Ramipril, ramipril]
[2]; DM patients only, Hp 1-1
  Relative Risk Ratio, Primary (non-fatal MI, stroke or cardiovascular death) (95% CI): 0.78(0.35-1.75)
[2]; DM patients only, Hp 2-1
  Relative Risk Ratio, Primary (non-fatal MI, stroke or cardiovascular death) (95% CI): 0.97
[2]; DM patients only, Hp 2-2
  Relative Risk Ratio, Primary (non-fatal MI, stroke or cardiovascular death) (95% CI): 0.57
[2]; DM patients only, Hp 2-2, listed as ramipril
  Relative Risk Ratio, Primary (non-fatal MI, stroke or cardiovascular death) (95% CI): 0.57
[2]; [6]
  benefit for any of the primary CV outcomes: no benefit
[2]; [7]
  Relative Risk Ratio, Primary (non-fatal MI, stroke or cardiovascular death) (95% CI): 0.74(0.47-1.17)
[2]; [8]
  Relative Risk Ratio, Primary (non-fatal MI, stroke or cardiovascular death) (95% CI): 0.81 (0.62-1.07)
[2]; [9]
  Relative Risk Ratio, Primary (non-fatal MI, stroke or cardiovascular death) (95% CI): 0.76
[2]; diabetic individuals in the HOPE study having a Hp 2-2 phenotype
  composite endpoint (non-fatal MI, stroke or cardiovascular death): statistically significant reduction
[2]; [10]
  benefit for any of the primary CV outcomes: no significant benefit
[2]
  benefit of supplementation: no significant benefit
